Reference: patent US20120177701A1, “COMPOSITIONS COMPRISING IMMUNOSTIMULATORY NUCLEIC ACIDS AND RELATED METHODS” (priority 2010, published 2012)

How the values were obtained:
murine splenocytes = test: Immune cell activation (CD69 expression, FACS) in murine splenocytes; format: cell-based, mouse; details: 20 hours; for activation of immune cell populations (CD69 expression) / immune cell activation compared with R848 and control oligonucleotide: 200 nM DOTAP-complexed; for immune cell activation compared with R848 and control oligonucleotide: R848 1 μM; for NKT cell activation (CD69) / T cell activation (CD69) / granulocyte activation (CD69): compared with R848 1 μM
Procedure: In addition, upon removal of the supernatant at 20 hours post-incubation, the mouse cells were stained for the following cell markers: GR1, F4/80, CD11c, CD220, CD3, Ly49b, and CD69, and analyzed by FACS. Different immune cell populations were distinguished as follows: macrophages (F4/80^+/GR1^−); plasmacytoid dendritic cells or pDC (CD11c^+/CD220^+); B cells (CD220^+/CD11c^−); NK (CD3^−/Ly49b^+); myeloid DC or mDC ([…]); granulocytes (eosinophils) (GR1^+high/F4/80^−); T cells (CD3^+); and NKT cells (CD3^+/Ly49b^+). All immune cell populations were quantified by the expression of CD69 (am early activation marker).

human TLR8 = molecular target: T1, human TLR8 (Homo sapiens, UniProt Q9NR97); test: HEK-Blue hTLR8 NF-kB-inducible SEAP reporter assay (TLR8 activation); format: cell-based
T1 construct: host or cells: HEK293 (HEK-Blue hTLR8) with NF-kB-inducible SEAP reporter
T1 sequence (Q9NR97 27-1041): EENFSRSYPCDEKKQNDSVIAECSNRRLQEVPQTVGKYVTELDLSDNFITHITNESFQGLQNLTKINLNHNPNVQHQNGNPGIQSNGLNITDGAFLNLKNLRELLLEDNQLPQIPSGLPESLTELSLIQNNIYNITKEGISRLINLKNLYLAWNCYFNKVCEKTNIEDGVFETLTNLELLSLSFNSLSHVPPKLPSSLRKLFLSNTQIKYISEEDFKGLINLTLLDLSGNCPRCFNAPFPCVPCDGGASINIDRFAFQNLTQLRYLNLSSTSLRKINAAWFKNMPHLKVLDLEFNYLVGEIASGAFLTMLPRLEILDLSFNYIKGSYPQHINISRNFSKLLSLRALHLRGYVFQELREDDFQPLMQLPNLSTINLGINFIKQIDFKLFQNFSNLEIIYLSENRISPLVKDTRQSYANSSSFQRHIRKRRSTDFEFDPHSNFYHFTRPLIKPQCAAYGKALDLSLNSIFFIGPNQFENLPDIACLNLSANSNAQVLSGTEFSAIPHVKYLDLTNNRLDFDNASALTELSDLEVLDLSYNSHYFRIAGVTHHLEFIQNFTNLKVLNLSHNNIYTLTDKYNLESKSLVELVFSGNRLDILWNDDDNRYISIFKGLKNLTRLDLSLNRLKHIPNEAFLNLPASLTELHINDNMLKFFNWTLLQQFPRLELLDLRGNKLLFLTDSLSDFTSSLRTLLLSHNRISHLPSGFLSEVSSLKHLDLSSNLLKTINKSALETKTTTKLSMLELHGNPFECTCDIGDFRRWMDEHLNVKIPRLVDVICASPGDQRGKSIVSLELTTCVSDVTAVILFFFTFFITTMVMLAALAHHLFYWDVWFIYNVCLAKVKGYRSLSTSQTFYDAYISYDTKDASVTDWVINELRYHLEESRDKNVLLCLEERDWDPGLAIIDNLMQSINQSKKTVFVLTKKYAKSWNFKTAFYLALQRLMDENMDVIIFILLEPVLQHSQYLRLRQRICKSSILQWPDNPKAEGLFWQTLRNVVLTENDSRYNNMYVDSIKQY

J774 murine macrophages = test: TNF-α induction in mouse macrophage cell line J774; format: cell-based
Procedure: Induction of TNF-α by macrophages is a hallmark of human TLR8 activation (Forsbach et al., 2008, J. Immunol., 180:3729-38; Ghosh et al., 2007, Int. Immunopharmacol., 7:1111-21; Gorden et al., 2005, J. Immunol., 174:1259-68). […] In the following experiment mouse macrophage cell line, J774, has been transfected by test ribonucleotides as described above for HEK-Blue™ hTLR8 cells (with the exception that 2-10×10^4 cells/well were used) and TNF-α was measured in culture supernatants at 16-20 hours after transfection.

| Substance | activation of immune cell populations (CD69 expression) (murine splenocytes) | immune cell activation compared with R848 and control oligonucleotide (murine splenocytes) | NKT cell activation (CD69) (murine splenocytes; 200 nM) | T cell activation (CD69) (murine splenocytes; 200 nM) | granulocyte activation (CD69) (murine splenocytes; 200 nM) | macrophage activation (CD69) (murine splenocytes; 200 nM, compared with R-0006) | TLR8 activation (fold increase of SEAP induction over the background), described in words (human TLR8) | TNF-α induction, described in words (J774 murine macrophages) | concentration at which TNF-α induction reached plateau (J774 murine macrophages) [nM] | B-cell activation (CD69) (murine splenocytes; 200 nM, compared with R-0006) |
| --- | --- | --- | --- | --- | --- | --- | --- | --- | --- | --- |
| 5′-AGAUGUUA--UUGUUU-AAUAUUU-3′ (AGAUGUUAUUGUUUAAUAUUU; phosphorothioate backbone, further chemistry not given here) [SL-0014, phosphorothioated ribonucleotide from SL-0001; dashes signify deleted nucleotides] | induced activation in most of the tested immune cell populations | at least comparable to that generated by treatment with 1 μM of R848, and usually exceeded the effects exhibited by the control oligonucleotide R-0006 | exceeded the activation observed for R848 | exceeded the activation observed for R848 | exceeded the activation observed for R848 | especially higher than the activation observed for R-0006 | – | – | – | – |
| 5′-AUUUAUUUUUAAAUUUUUGUGU-3′ (phosphorothioate, further chemistry not given here) [SL-0023, phosphorothioated ribonucleotide completely contained within SL-0005] | – | – | – | – | – | – | even stronger activity than the parental SL-0005 sequence | – | – | – |
| 5′-CUGUGUGAACGAUAGUGCAG-3′ (phosphorothioate, further chemistry not given here) [SL-0019, phosphorothioated ribonucleotide derived from SL-0004] | – | – | – | – | – | – | markedly weaker | weaker than the level of induction observed for the other oligonucleotides | – | – |
| 5′-GUUUAUCUGUGUG----------CAGUUUAAAC-3′ (GUUUAUCUGUGUGCAGUUUAAAC; phosphorothioate, further chemistry not given here) [SL-0020, dashes signify deleted nucleotides] | – | – | – | – | – | – | activity similar or exceeding that of SL-0004 | most potent | 300 | – |
| 5′-UUAUUUUGUUUUUAAUAUUU-3′ (phosphorothioate backbone, further chemistry not given here) [SL-0012] | induced activation in most of the tested immune cell populations | at least comparable to that generated by treatment with 1 μM of R848, and usually exceeded the effects exhibited by the control oligonucleotide R-0006 | exceeded the activation observed for R848 | exceeded the activation observed for R848 | exceeded the activation observed for R848 | especially higher than the activation observed for R-0006 | – | – | – | – |
| 5′-UUAUUUUGUUUUUAAUAUUUC-3′ (phosphorothioate backbone, further chemistry not given here) [SL-0011] | induced activation in most of the tested immune cell populations | at least comparable to that generated by treatment with 1 μM of R848, and usually exceeded the effects exhibited by the control oligonucleotide R-0006 | exceeded the activation observed for R848 | exceeded the activation observed for R848 | exceeded the activation observed for R848 | especially higher than the activation observed for R-0006 | – | – | – | especially higher than the activation observed for R-0006 |
